In assay [1] the target is HPK1 (Homo sapiens, UniProt Q92918). The experiment in a line: HPK1 Biochemical Assay (ADP-Glo luminescence; low ATP 10 μM or high ATP 200 μM). As to conditions: HPK1 ADP-Glo assay, high ATP (200 μM ATP, 5 nM HPK1); read-out: Biochemical Potency (high ATP).
Assay [2] deals with p-SLP-76 (Ser376) in Jurkat cells. The experiment in a line: pSLP76 Cellular Assay (AlphaLISA SureFire Ultra p-SLP-76 (Ser376), anti-CD3 activated Jurkat cells). It counts as cell-based. The following applies: pSLP76 (Ser376) AlphaLISA, anti-CD3 activated Jurkat cells, read-out: Cellular Potency. Summed up: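 Jurkat cells, serum-starved overnight in Opti-MEM then in HBSS, preincubated 1 h at 37 °C with 22-point 2-fold compound dilutions, then stimulated with anti-CD3 (0.025 mg/ml added solution) for 45 min. Lysate p-SLP-76 (Ser376) measured by AlphaLISA at 570 nm; IC50 from 4-parameter logistic fit.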
A general note: Alpha assays give light when donor and acceptor beads are brought close together.

Like-named read-outs stand apart in the source and are kept apart here.

Sequence of HPK1 (Q92918 whole entry, species assumed): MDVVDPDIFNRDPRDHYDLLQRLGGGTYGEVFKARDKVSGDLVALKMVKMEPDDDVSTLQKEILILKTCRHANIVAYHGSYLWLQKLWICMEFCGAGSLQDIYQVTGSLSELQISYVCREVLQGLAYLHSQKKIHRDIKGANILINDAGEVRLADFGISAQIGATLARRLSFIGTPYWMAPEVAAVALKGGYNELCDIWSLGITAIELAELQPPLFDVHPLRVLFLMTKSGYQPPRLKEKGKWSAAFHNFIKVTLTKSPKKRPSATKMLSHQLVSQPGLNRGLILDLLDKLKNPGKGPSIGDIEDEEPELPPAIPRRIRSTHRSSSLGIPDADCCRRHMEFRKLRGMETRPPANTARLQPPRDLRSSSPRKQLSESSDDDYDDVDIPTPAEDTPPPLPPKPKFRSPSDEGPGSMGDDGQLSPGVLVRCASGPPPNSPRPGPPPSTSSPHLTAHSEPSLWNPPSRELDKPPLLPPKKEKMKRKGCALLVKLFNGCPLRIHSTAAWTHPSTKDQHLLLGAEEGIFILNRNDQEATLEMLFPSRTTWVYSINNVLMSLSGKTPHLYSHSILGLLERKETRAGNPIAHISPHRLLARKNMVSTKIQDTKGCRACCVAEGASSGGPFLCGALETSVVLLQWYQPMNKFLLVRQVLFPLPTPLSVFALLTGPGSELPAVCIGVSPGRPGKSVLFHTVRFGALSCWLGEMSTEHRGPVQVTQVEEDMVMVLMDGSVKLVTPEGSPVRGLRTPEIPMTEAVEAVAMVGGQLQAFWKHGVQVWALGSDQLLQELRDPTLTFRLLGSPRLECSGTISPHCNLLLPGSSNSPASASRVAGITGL

As for `CCN1C[C@@H]2C[C@H]1CN2c1nc(C)cc(Nc2cc3nc(-c4cccc(C(=O)NC5CCCC5)c4)sc3cn2)n1` [Example 515], the IC50 in assay [1] and in assay [2] (Homo sapiens) was < 100 nM throughout.
Take `CCN1C[C@@H]2C[C@H]1CN2c1nc(C)cc(Nc2cc3nc(-c4cccc(C(=O)N[C@H](C)c5ccccc5)c4)sc3cn2)n1` [Example 516]: the values for the IC50 in assay [1] and in assay [2] (Homo sapiens) were < 100 nM and 100 to 1000 nM, respectively.
The matching figures for `CCN1C[C@@H]2C[C@H]1CN2c1nc(C)cc(Nc2cc3nc(-c4cccc(C(=O)N5CCC(C)CC5)c4)sc3cn2)n1` [Example 517]: < 100 nM and < 100 nM.
As for `CCc1cc(C(=O)N(C)C)cc(-c2nc3cc(Nc4cc(C)nc(N5C[C@@H]6C[C@H]5CN6CC)n4)ncc3s2)c1` [Example 518], the IC50 in assay [1] and in assay [2] (Homo sapiens) was < 100 nM each time.
As for `CCN1C[C@@H]2C[C@H]1CN2c1nc(C)cc(Nc2cc3nc(-c4cc(Cl)cc(C(=O)N(C)C)c4)sc3cn2)n1` [Example 519], the IC50 in assay [1] is < 100 nM; in assay [2] (Homo sapiens), 100 to 1000 nM.
Take `CCN1C[C@@H]2C[C@H]1CN2c1nc(C)cc(Nc2cc3nc(-c4cccc(C(=O)N5CCCC5(C)C)c4)sc3cn2)n1` [Example 520]: the IC50 in assay [1] and in assay [2] (Homo sapiens) was < 100 nM throughout.
Turning to `CCN1C[C@@H]2C[C@H]1CN2c1nc(C)cc(Nc2cc3nc(-c4cccc(C(=O)N5CCC(C)(C)C5)c4)sc3cn2)n1` [Example 521], the IC50 in assay [1] was < 100 nM; in assay [2] (Homo sapiens), 100 to 1000 nM.
Consider `CCN1C[C@@H]2C[C@H]1CN2c1nc(C)cc(Nc2cc3nc(-c4cccc(C(=O)Nc5ccccc5)c4)sc3cn2)n1` [Example 522], for which the results for the IC50 in assay [1] and in assay [2] (Homo sapiens) were < 100 nM and 100 to 1000 nM, respectively.
`CCN1C[C@@H]2C[C@H]1CN2c1nc(C)cc(Nc2cc3nc(-c4cccc(C(=O)N(C)CC5CCOCC5)c4)sc3cn2)n1` [Example 523]: the IC50 in assay [1] is < 100 nM; in assay [2] (Homo sapiens), 100 to 1000 nM.
Take `CCN1C[C@@H]2C[C@H]1CN2c1nc(C)cc(Nc2cc3nc(-c4cccc(C(=O)N[C@H](C)C5CC5)c4)sc3cn2)n1` [Example 524]: the IC50 in assay [1] and in assay [2] (Homo sapiens) was < 100 nM throughout.
Consider `CCN1C[C@@H]2C[C@H]1CN2c1nc(C)cc(Nc2cc3nc(-c4cccc(C(=O)N[C@@H](C)C5CC5)c4)sc3cn2)n1` [Example 525], for which the IC50 in assay [1] and in assay [2] (Homo sapiens) was < 100 nM each time.
As for `CCN1C[C@@H]2C[C@H]1CN2c1nc(C)cc(Nc2cc3nc(-c4cccc(C(=O)N5CCC[C@@H]5C)c4)sc3cn2)n1` [Example 526], the IC50 in assay [1] and in assay [2] (Homo sapiens) was < 100 nM in each case.
For the compound `CCN1C[C@@H]2C[C@H]1CN2c1nc(C)cc(Nc2cc3nc(-c4cccc(C(=O)N5CCOC[C@H]5C)c4)sc3cn2)n1` [Example 527], the IC50 is < 100 nM in assay [1] and 100 to 1000 nM in assay [2] (Homo sapiens).
As to `CCN1C[C@@H]2C[C@H]1CN2c1nc(C)cc(Nc2cc3nc(-c4cccc(C(=O)N(C)C5CCOCC5)c4)sc3cn2)n1` [Example 528], the values for the IC50 in assay [1] and in assay [2] (Homo sapiens) were < 100 nM and 100 to 1000 nM, respectively.
Regarding `CCN1C[C@@H]2C[C@H]1CN2c1nc(C)cc(Nc2cc3nc(-c4cccc(C(=O)N5C[C@@H]6OCCO[C@@H]6C5)c4)sc3cn2)n1` [Example 529], the IC50 in assay [1] and in assay [2] (Homo sapiens) was < 100 nM each time.
In the case of `CCN1C[C@@H]2C[C@H]1CN2c1nc(C)cc(Nc2cc3nc(-c4cccc(C(=O)N5CCC6(CCOC6)C5)c4)sc3cn2)n1` (stereo partly drawn) [Example 530], the IC50 was < 100 nM in assay [1] and 100 to 1000 nM in assay [2] (Homo sapiens).
In the case of `CCN1C[C@@H]2C[C@H]1CN2c1nc(C)cc(Nc2cc3nc(-c4cccc(C(=O)N5CCCOCC5)c4)sc3cn2)n1` [Example 531], the values for the IC50 in assay [1] and in assay [2] (Homo sapiens) were < 100 nM and 100 to 1000 nM, respectively.
`CCN1C[C@@H]2C[C@H]1CN2c1nc(C)cc(Nc2cc3nc(-c4cccc(C(=O)NC5CCOCC5)c4)sc3cn2)n1` [Example 532]: the IC50 in assay [1] is < 100 nM; in assay [2] (Homo sapiens), 100 to 1000 nM.
As for `CCN1C[C@@H]2C[C@H]1CN2c1nc(C)cc(Nc2cc3nc(-c4cccc(C(=O)N5CC[C@H](C)C5)c4)sc3cn2)n1` [Example 533], the IC50 in assay [1] and in assay [2] (Homo sapiens) was < 100 nM in each case.
Take `CCN1C[C@@H]2C[C@H]1CN2c1nc(C)cc(Nc2cc3nc(-c4cccc(C(=O)N5CC[C@H](OC)C5)c4)sc3cn2)n1` [Example 534]: the IC50 was < 100 nM in assay [1] and 100 to 1000 nM in assay [2] (Homo sapiens).
For `CCN1C[C@@H]2C[C@H]1CN2c1nc(C)cc(Nc2cc3nc(-c4cccc(C(=O)N5CCC[C@@H]5COC)c4)sc3cn2)n1` [Example 535], the IC50 in assay [1] and in assay [2] (Homo sapiens) was < 100 nM each time.
As to `CCN1C[C@@H]2C[C@H]1CN2c1nc(C)cc(Nc2cc3nc(-c4cc(C(=O)N(C)C)cc(C5CC5)c4)sc3cn2)n1` [Example 536], the IC50 in assay [1] and in assay [2] (Homo sapiens) was < 100 nM throughout.
`Cc1cc(-c2nc3cc(Nc4cc(C)nc(N5C[C@@H]6C[C@H]5CN6CCO)n4)ncc3s2)cc(C2CC2)n1` [Example 537]: the IC50 was < 100 nM in assay [1] and 100 to 1000 nM in assay [2] (Homo sapiens).
In the case of `CCN1C[C@@H]2C[C@H]1CN2c1nc(C)cc(Nc2cc3nc(-c4cccc(C(=O)N5CCC(F)CC5)c4)sc3cn2)n1` [Example 538], the IC50 in assay [1] and in assay [2] (Homo sapiens) was < 100 nM throughout.
On to `Cc1cc(Nc2cc3nc(-c4cccc(C(=O)N[C@@H]5CCCOC5)c4)sc3cn2)nc(N2C[C@@H]3C[C@H]2CN3CCO)n1` [Example 540], for which the IC50 in assay [1] and in assay [2] (Homo sapiens) was < 100 nM in each case.
Consider `Cc1cc(Nc2cc3nc(-c4cccc(C(=O)N[C@H]5CCCOC5)c4)sc3cn2)nc(N2C[C@@H]3C[C@H]2CN3CCO)n1` [Example 541], for which the IC50 in assay [1] was < 100 nM; in assay [2] (Homo sapiens), 100 to 1000 nM.
Regarding `Cc1cc(Nc2cc3nc(-c4cccc(C(=O)N(C)[C@H]5CCCOC5)c4)sc3cn2)nc(N2C[C@@H]3C[C@H]2CN3CCO)n1` [Example 543], the IC50 in assay [1] and in assay [2] was < 100 nM throughout.
Consider `Cc1cc(Nc2cc3nc(-c4cccc(C(=O)N(C)C5CCCC5)c4)sc3cn2)nc(N2C[C@@H]3C[C@H]2CN3CCO)n1` [Example 544], for which the IC50 in assay [1] and in assay [2] (Homo sapiens) was < 100 nM throughout.
Regarding `Cc1cc(Nc2cc3nc(-c4cccc(C(=O)NC5CCCC5)c4)sc3cn2)nc(N2C[C@@H]3C[C@H]2CN3CCO)n1` [Example 545], the IC50 in assay [1] and in assay [2] (Homo sapiens) was < 100 nM throughout.
Turning to `CCc1cc(C(=O)N(C)C)cc(-c2nc3cc(Nc4cc(C)nc(N5C[C@@H]6C[C@H]5CN6CCO)n4)ncc3s2)c1` [Example 546], the IC50 in assay [1] and in assay [2] (Homo sapiens) was < 100 nM each time.
`Cc1cc(Nc2cc3nc(-c4cccc(C(=O)N5CCOC[C@H]5C)c4)sc3cn2)nc(N2C[C@@H]3C[C@H]2CN3CCO)n1` [Example 547]: the results for the IC50 in assay [1] and in assay [2] (Homo sapiens) were < 100 nM and 100 to 1000 nM, respectively.
For `Cc1cc(Nc2cc3nc(-c4cccc(C(=O)N5CCC[C@@H]5C)c4)sc3cn2)nc(N2C[C@@H]3C[C@H]2CN3CCO)n1` [Example 548], in that order: < 100 nM and < 100 nM.
For `CNC(=O)c1cccc(-c2nc3cc(Nc4cc(C)nc(N5C[C@@H]6C[C@H]5CN6CCO)n4)ncc3s2)c1` [Example 549], the IC50 was < 100 nM in assay [1] and 100 to 1000 nM in assay [2] (Homo sapiens).
Consider `Cc1cc(Nc2cc3nc(-c4cccc(C(=O)N5CCC[C@H]5C)c4)sc3cn2)nc(N2C[C@@H]3C[C@H]2CN3CCO)n1` [Example 550], for which the results for the IC50 in assay [1] and in assay [2] (Homo sapiens) were < 100 nM and 100 to 1000 nM, respectively.
`Cc1cc(Nc2cc3nc(-c4cc(C(=O)N(C)C)cc(C(C)C)c4)sc3cn2)nc(N2C[C@@H]3C[C@H]2CN3CCO)n1` [Example 551]: the IC50 in assay [1] and in assay [2] (Homo sapiens) was < 100 nM in each case.
As for `Cc1cc(Nc2cc3nc(-c4cc(C(=O)N(C)C)cc(C5CC5)c4)sc3cn2)nc(N2C[C@@H]3C[C@H]2CN3CCO)n1` [Example 552], the IC50 in assay [1] and in assay [2] (Homo sapiens) was < 100 nM in each case.
`Cc1cc(Nc2cc3nc(-c4cccc(C(N)=O)c4)sc3cn2)nc(N2C[C@@H]3C[C@H]2CN3CCO)n1` [Example 553]: the IC50 in assay [1] is < 100 nM; in assay [2] (Homo sapiens), 1000 to 5000 nM.
The matching figures for `Cc1cc(Nc2cc3nc(-c4cc(C#N)cc(C(=O)N(C)C)c4)sc3cn2)nc(N2C[C@@H]3C[C@H]2CN3CCO)n1` [Example 554]: < 100 nM and 100 to 1000 nM.
The matching figures for `Cc1cc(Nc2cc3nc(-c4cccc(C(=O)N(C)[C@H]5CCOC5)c4)sc3cn2)nc(N2C[C@@H]3C[C@H]2CN3CCO)n1` [Example 555]: < 100 nM and < 100 nM.
For `CCN1C[C@@H]2C[C@H]1CN2c1nc(C)cc(Nc2cc3nc(-c4cccc(C(=O)NC5CCOC5)c4)sc3cn2)n1` (stereo partly drawn) [Example 556], the IC50 in assay [1] and in assay [2] (Homo sapiens) was < 100 nM in each case.
For `Cc1cc(Nc2cc3nc(-c4cccc(C(=O)N(C)CC5CC5)c4)sc3cn2)nc(N2C[C@@H]3C[C@H]2CN3CCO)n1` [Example 558], the IC50 in assay [1] and in assay [2] (Homo sapiens) was < 100 nM each time.
Turning to `Cc1cc(Nc2cc3nc(-c4cccc(C(=O)N(C)[C@@H](C)CO)c4)sc3cn2)nc(N2C[C@@H]3C[C@H]2CN3CC2CC2)n1` [Example 560], the IC50 in assay [1] and in assay [2] (Homo sapiens) was < 100 nM in each case.

For the origin of these results see patent US12649751B2 (Arcus Biosciences, Inc., priority 2022, dated 2026).
